The subject of series [1] is mice. Kind of series: Collagen induced platelet consumption. The settings on record: WTs, PGHS-2 Y385F and PGHS-2 KO mice, 2 min after i.v. collagen plus epinephrine. It is filed as in vivo, mouse. As for the experimental part: (ii) Collagen induced platelet consumption: Briefly, mice (8 weeks old) were weighed and anesthetized with sodium pentobarbital (80 mg/kg). 100 μl of a mixture of collagen (250 μg/ml) and epinephrine (15 μg/ml) in 0.9% NaCl was injected rapidly into the tail vein. […] After thorough mixing, platelets were counted by automated multispecies hematology analyzers (CDC Technologies), as previously described (Gresele et al, 1990, Thromb. Haemost. 64:80-6).

For series [2], the target named is T1, IP (PGI2 receptor) (Mus musculus, UniProt P43252).
T1 construct: anesthetized WT, IP^+/−, and IP^−/− littermates on C57BL/6 genetic background, following administration of the IP agonist cicaprost; from tissue; host or cells: whole animal: anesthetized WT, IP+/- and IP-/- mice, C57BL/6 background, in vivo
Kind of series: Direct measurement of blood pressure (MAP) after i.v. cicaprost. It is filed as in vivo. The following applies: 1 μg/kg intravenously; for Maximal decline in MAP from pretreatment baseline: C57BL/6, anesthetized. The method, then: (§1) (iii) Direct measurement of blood pressure: Mice were anesthetized (ketamine 100 mg/kg, acepromazine 5 mg/kg) and placed on a temperature-controlled panel. The right internal jugular vein and left carotid artery were cannulated with PE-10 tubing. The arterial catheter was connected to a Capto SP844 pressure transducer (Capto, Horten, Norway), and blood pressure (BP) was monitored continuously with a Powerlab/8SP system (AD Instruments Inc, Colorado Springs, Colo.), as previously described (Hui et al., 2004, Circulation 110: 3360-6; Rocca et al., 2000, Nat. Med. 6: 219-21). Blood pressure and heart rate were continuously monitored for 20-40 min until stable values were obtained. After the equilibration period and the baseline BP was recorded, mice were injected via the right internal jugular vein with cicaprost (1 μg/kg in 4 ml/kg saline) as a bolus. The same volume of saline was injected before cicaprost administration to exclude volume-mediated BP changes. The BP was continuously recorded until it returned to pretreatment baseline.
(§2) The cardiovascular consequences of deleting just one copy of the IP on cardiovascular function in vivo was studied. Mean arterial pressure (MAP) was measured directly via carotid artery catheterization in anesthetized WT, IP^+/−, and IP^−/− littermates on C57BL/6 genetic background, following administration of the IP agonist cicaprost (Cica) 1 μg/kg intravenously (FIG. 3). The maximal decline evoked by Cica in MAP was 36±3.5% from pretreatment baseline in WT, 24%±3.3% in IP+/− and 0% in IP−/− littermates(F=42, n=5; P<0.0001). […] A similar effect of IP deletion was seen on the inhibitory effect of 10 nM cicaprost on platelet aggregation induced by collagen 2 μg/ml ex vivo (FIG. 4). […] The impact of IP deletion on the time to thrombotic carotid arterial occlusion, induced by green laser activation of Rose Bengal, which causes free radical catalyzed vascular injury, was also gene-dose dependent (FIG. 5, left panel). The time to occlusion fell from 66.3±5.1 min in WTs to […] in IP^+/− to 29.7±7.6 min in IP^−/− mice (F=6.5, n=9-10, P<0.0055). Inhibition of PGHS-2 by DFU also accelerated thrombogenesis, from 59.4±10.4 min to 33.4±4.3 min (n=7-8, P<0.05; FIG. 5, right panel). Thus, the mean impact of DFU on time to occlusion (56.2% of WT value) was intermediate between that of IP^+/− ([…]) and IP^−/− (45.5%) mice.

The subject of series [3] is IP (PGI2 receptor). The series is described as above. It is filed as in vivo, mouse. The settings on record: IP-/- mice, 1 μg/kg intravenously. As for the experimental part: as §1, §2
Series [4] deals with platelet aggregation induced by collagen. Kind of series: Whole blood platelet aggregation assay, collagen-induced, ex vivo. The settings on record: 10 nM, collagen 2 μg/ml. Format: cell-based, mouse. The method, then: 250 μl blood was mixed with 750 μl of sodium chloride at 37° C. Platelet aggregation was performed using a 500 Whole Blood Lumi-Aggregometion System (Chrono-Log Corp, Havertown, Pa.) as previously described ([…] et al., 1983, Thromb. Haemost. 50: 852-6; Booth et al., 1998, Can. J. Physiol. Pharmacol. 76: 811-3; Emery et al., 1995, Arterioscler. Thromb. Vasc. Biol. 15: 748-53). Samples were pretreated with or without 10 nM cicaprost for 1 minute, and aggregation was initiated by addition of 2 μg/ml collagen.

Series [5] concerns PGI2 biosynthesis (urinary 2,3-dinor 6-keto PGF1α, PGIM). Kind of series: Urinary PGIM (2,3-dinor 6-keto PGF1α) excretion, 24 h urine, GC/MS. The following applies: DFU, WT male mice, before vs after administration (FIG. 2). It is filed as in vivo, mouse. The method, then: Eicosanoid analyses: Urinary TxM and PGIM were measured in twenty four hour urines collected in metabolic cages. After extraction and purification by thin layer chromatography, they were analyzed by a stable isotope dilution reverse phase (C18) HPLC/tandem mass spectrometry assay and gas chromatography/mass spectrometry, respectively, as previously described (Egan et al., 2005, Circulation 111: 334-242).
The relative contribution of the PGHS enzymes, PGHS-1 and PGHS-2, to the biosynthesis of PGI2 and TxA2 was assessed by measuring urinary 2,3-dinor 6-keto PGF1α (PGIM) and 2,3-dinor TxB2 (TxM) respectively. […] PGIM and TxM was also assessed in PGHS-1 knockdown (KD) mice. […] Traditional NSAIDS and NSAIDs selective for PGHS-2 inhibit COX activity, not POX activity. Tyr385 in PGHS (ovine PGH-1 numbering) is critical for cyclooxygenase (COX) catalysis, but is uninvolved in peroxidase (POX) activity. PGIM and TxM was also assessed in PGHS-2^Y385F mice, in which the cyclooxygenase, but not the peroxidase (POX) function, of PGHS-2 is inactivated, thereby mimicking the effect of a selective PGHS-2 inhibitor (Yu et al., 2005a, J. Clin. Invest. (Submitted manuscript)).

For series [6], the system named is PGE2 biosynthesis (urinary PGEM). The series is described as follows: Urinary PGEM by LC/MS/MS. It is filed as in vivo, mouse. The settings on record: DFU, WT male mice, vs pre-administration value (FIG. 11). As for the experimental part: Urinary PGEM was measured by LC/MS/MS as follows: First, 10 ng of hexadeuterated PGEM (9,15-dioxo-11α-hydroxy-2,3,4,5-tetranor-prostan-1,20-dioic-17,17,18,18,19,19-d6 acid; Cayman Chemical Co., Ann Arbor, Mich.) was added as an internal standard to 0.1 ml of mouse urine. Next, 50 μL of 1 g/ml methoxyamine HCl was added, and the sample was mixed and allowed to stand at room temperature for 15 minutes. The sample was then diluted to 1.0 ml with water and loaded on a StrataX solid phase extraction (SPE) cartridge (Phenomenex, Torrance, Calif.). The SPE was eluted with 1.0 mL of 5% acetonitrile in ethyl acetate, dried, dissolved in 200 μL 10% acetonitrile in water, and injected for LC/MS/MS analysis. Transitions monitored were m/z 385→336 for the endogenous PGE-M and 391→342 for the internal standard.
PGE2 biosynthesis was assessed in mice having inhibited or deleted PGHS-1 or PGHS-2 function using a mass spectrometric assay (FIG. 9) for the major PGE metabolite, 11α-hydroxy-9,15-dioxo-2,3,4,5-tetranor-prostane-1,20-dioic acid (PGEM). […] Thus, unlike PGI2 biosynthesis, both PGHS-1 and PGHS-2 each contribute substantially to PGE2 biosynthesis.

The subject of series [7] is mice. The settings on record: mouse, in vivo.
Description: (i) Photochemical vascular injury: This model is an adaptation of one previously described method (Yu et al., 2005, J. Clin. Invest. 115:986-95). Briefly, mice were anesthetized with sodium pentobarbital (80 mg/kg, intraperitoneally). The left common carotid artery was isolated and a Doppler flow probe (Model 0.5 VB, Transonic Systems Co., NY) was applied. The probe was connected to a flowmeter (Transonic Model T105) and interpreted with a computerized data acquisition program (Powerlab, AD Instruments, CO). Just before i.v. injection of Rose Bengal (50 mg/kg body weight, Fisher Scientific, NJ), a 1.5-mW green light laser (540 nm) (Melles Griot Inc, Carlsbad, Calif.) was applied to the desired site of injury at a distance of 5 cm from the carotid artery. Blood flow was monitored up to 120 minutes after injection or until stable occlusion occurred. Stable occlusion was defined as a blood flow of 0 ml/min for 3 minutes. To confirm occlusive thrombosis, carotid arterial segments subjected to injury were excised and embedded in paraffin. Sections were then stained with hematoxylin and eosin.
The target in series [8] is T2, thromboxane receptor (TP) (Mus musculus, UniProt P30987).
T2 construct: they received a rapid intravenous injection of U46619 (0.2 mg/kg in PBS, Cayman Chemical) via the tail vein; from tissue; host or cells: whole animal: WT, PGHS-2 KO and PGHS-2 Y385F mice, in vivo
T2 sequence (P30987 1-341): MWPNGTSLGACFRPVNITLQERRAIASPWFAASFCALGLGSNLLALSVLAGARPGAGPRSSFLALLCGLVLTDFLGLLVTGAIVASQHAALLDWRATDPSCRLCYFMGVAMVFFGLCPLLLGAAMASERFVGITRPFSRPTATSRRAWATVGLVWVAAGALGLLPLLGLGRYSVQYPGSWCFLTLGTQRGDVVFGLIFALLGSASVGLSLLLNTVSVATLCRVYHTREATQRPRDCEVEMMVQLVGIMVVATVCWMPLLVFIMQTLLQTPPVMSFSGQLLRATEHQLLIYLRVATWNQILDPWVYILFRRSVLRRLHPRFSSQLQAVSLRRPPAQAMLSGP
Kind of series: U46619 induced sudden death. It is filed as in vivo. The following applies: PGHS-2 KO and PGHS-2 Y385F mice compared to WT, 0.2 mg/kg intravenous, within 15 min. As for the experimental part: (iii) U46619 induced sudden death: This model is based on a model established previously (Momi et al., 2000, Eur. J. Pharmacol. 397: 177-85). Briefly, mice (3-4 months old) were anesthetized with sodium pentobarbital. Then they received a rapid intravenous injection of U46619 (0.2 mg/kg in PBS, Cayman Chemical) via the tail vein. Heart rate was monitored for 15 minutes prior to sacrifice.

Series [9] concerns mice. Kind of series: Tail cuff blood pressure measurement. It is filed as in vivo, mouse. The method, then: (i) Tail Cuff measurement: Resting systolic blood pressure was measured in conscious, 3-4 month old mice using a computerized, noninvasive tail-cuff system, BP-2000 Blood Pressure Analysis System™ (Visitech Systems, Inc. Apex, N.C.). […] Mice were adapted to the system for 14 days by taking blood pressure measurements during 25 minute long sessions. The sessions were held once daily between 15:00 and 18:00. After the adaptation period, blood pressure was recorded daily for 3 consecutive days in the same way. Data were collected and analyzed using updated BP 2000 Analysis Software.

The mark [10] stands for this setting: 3 month old mice, mixed C57BL/6×129/sv, regular chow.

In general, inhibition refers to the change of the read-out against control, counted positive when it falls.

T1 sequence (P43252 1-412): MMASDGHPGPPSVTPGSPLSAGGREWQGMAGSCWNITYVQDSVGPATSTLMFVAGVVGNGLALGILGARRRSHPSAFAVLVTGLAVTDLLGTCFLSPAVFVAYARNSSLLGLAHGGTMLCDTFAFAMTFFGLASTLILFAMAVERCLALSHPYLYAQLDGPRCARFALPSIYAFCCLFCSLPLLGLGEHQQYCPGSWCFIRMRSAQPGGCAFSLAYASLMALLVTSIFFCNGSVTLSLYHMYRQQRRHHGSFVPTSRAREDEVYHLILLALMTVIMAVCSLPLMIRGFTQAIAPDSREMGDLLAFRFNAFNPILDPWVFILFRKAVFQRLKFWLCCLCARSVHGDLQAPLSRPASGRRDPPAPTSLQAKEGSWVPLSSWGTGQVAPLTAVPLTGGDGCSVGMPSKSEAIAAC

On to collagen, for which the Circulating platelet count result in the series on mice [1] is “dose-dependent decrese in platelets”.
On to `CCC#CC[C@H](C)[C@H](O)C#C[C@@H]1[C@H]2C/C(=C/COCC(=O)O)C[C@H]2C[C@H]1O` [cicaprost], for which the “Duration of the depressor response” value on IP (PGI2 receptor) [2] (IP+/- mice) was 5.3 ± 1.1 min; on IP (PGI2 receptor) [2] (WT mice), 10.8 ± 2.5 min; with IP (PGI2 receptor) [3], “no change in MAP”. Also, the “Maximal decline in MAP from pretreatment baseline” value at IP (PGI2 receptor) [2] (IP+/- mice) is 24%±3.3; at IP (PGI2 receptor) [2] (WT mice), 36±3.5%; in the series on IP (PGI2 receptor) [3] (C57BL/6, anesthetized), 0%. For the same molecule, the “Inhibition of platelet aggregation” value in series [4] (IP-/- mice) is given as “not achieved”. For the same molecule, in [4] (Mus musculus, Platelet, IP+/- mice, read-out: Inhibition of platelet aggregation, % of the maximal inhibition observed in WTs), the inhibition at 0.01 µM was found to be 86.7%.
As to `CC1(C)OC(=O)C(c2cccc(F)c2)=C1c1ccc(S(C)(=O)=O)cc1` [DFU, 5,5-dimethyl-3-(3-fluorophenyl)-4-(4-methylsulphonyl)phenyl-2(5H)-furanone], the “Urinary 2,3-dinor 6-keto PGF1α (PGIM)” value in series [5] is recorded as “depressed significantly”. Moreover, the “Urinary PGEM” value in series [6] was “depressed PGEM significantly”. For the same molecule, in the series on mice [7], the “Mean impact on time to occlusion, % of WT value” is recorded as 56.2%.
With `CCCCC[C@H](O)/C=C/[C@@H]1[C@@H](C/C=C\CCCC(=O)O)[C@H]2CO[C@@H]1C2` [U46619], the “Frequency of sudden death” value in [8] is listed as “augmented”.
For the molecule `Cc1ccc(-c2cc(C(F)(F)F)nn2-c2ccc(S(N)(=O)=O)cc2)cc1` [celecoxib], in the series with mice [9] (setting [10]), the “Diastolic blood pressure compared to WTs” value was “elevated significantly” and the “Systolic blood pressure compared to WTs” value is reported as “elevated significantly”. Besides, the “Hypertensive effect in PGHS-1 KDs compared to WTs” value with mice [9] (PGHS-1 KD mice) was “attenuated”.

The record behind these values is patent publication US7608416B2, “Targeting mPGES-1 as a treatment for inflammation which avoids cardiovascular risk” (The Trustees of the University of Pennsylvania, priority 2004, dated 2009).
